Experimental data taken from US20170327471A1, “Aryl sulphide and aryl sulphoxide derivatives having C-C-attached uracils as pesticides” (BAYER CROPSCIENCE AKTIENGESELLSCHAFT, priority 2014, published 2017).
Like-named read-outs stand apart in the source and are kept apart here.

What was measured:
[1] = logP by reversed-phase HPLC (EEC Directive 79/831 Annex V.A8); type: physicochemical; settings: reversed-phase C18 HPLC column
Experimental: The logP values were determined in accordance with EEC Directive 79/831 Annex V.A8 by HPLC (High Performance Liquid Chromatography) using reversed-phase columns (C 18) by the following methods:
^[a] The LC-MS determination in the acidic range was effected at pH 2.7 with 0.1% aqueous formic acid and acetonitrile (contains 0.1% formic acid) as eluents; linear gradient from 10% acetonitrile to 95% acetonitrile. Called logP (HCOOH) in the table.
^[b] LC-MS determination in the neutral range was effected at pH 7.8 with 0.001 molar aqueous ammonium hydrogencarbonate solution and acetonitrile as eluents; linear gradient from 10% acetonitrile to 95% acetonitrile. Called logP (neutral) in the table.
Calibration was effected with unbranched alkan-2-ones (having 3 to 16 carbon atoms) with known logP values (logP values determined on the basis of the retention times by linear interpolation between two successive alkanones).

[2] = system: Boophilus microplus; assay: Boophilus microplus injection test; type: in vivo; settings: application rate, injection into engorged adult female cattle ticks, after 7 days
Experimental: 1. Boophilus microplus—Injection Test Solvent: dimethyl sulphoxide
To produce a suitable preparation of active compound, 10 mg of active compound are mixed with 0.5 ml of solvent and the concentrate is diluted with solvent to the desired concentration.
1 μl of the active compound solution is injected into the abdomen of 5 engorged adult female cattle ticks (Boophilus microplus). The animals are transferred into dishes and kept in a climate-controlled room.
Efficacy is assessed after 7 days by laying of fertile eggs. Eggs which are not visibly fertile are stored in a climate-controlled cabinet until the larvae hatch after about 42 days. An efficacy of 100% means that none of the ticks has laid any fertile eggs; 0% means that all the eggs are fertile.

[3] = system: Meloidogyne incognita; assay: Meloidogyne incognita test (sand, lettuce, solvent acetone); type: in vivo; settings: application rate 20 ppm, after 14 days, lettuce in sand
Experimental: 2. Meloidogyne incognita Test Solvent: 125.0 parts by weight of acetone To produce a suitable preparation of active compound, 1 part by weight of active compound is mixed with the stated amount of solvent and the concentrate is diluted with water to the desired concentration. Vessels are filled with sand, active compound solution, an egg/larvae suspension of the southern root-knot nematode (Meloidogyne incognita) and lettuce seeds. The lettuce seeds germinate and the plants develop. The galls develop on the roots. After 14 days, the nematicidal efficacy in % is determined by the formation of galls. 100% means that no galls were found; 0% means that the number of galls on the treated plants corresponds to the untreated control.

[4] = system: Tetranychus urticae; assay: Tetranychus urticae spray test, OP-resistant (bean leaf discs); type: in vivo; settings: application rate 500 g/ha, after 6 days
Experimental: 4. Tetranychus urticae—Spray Test, OP-Resistant Solvent: 78.0 parts by weight of acetone • • 1.5 parts by weight of dimethylformamide Emulsifier: alkylaryl polyglycol ether
(§1) To produce a suitable preparation of active compound, 1 part by weight of active compound is dissolved using the stated parts by weight of solvent and made up with water containing an emulsifier concentration of 1000 ppm until the desired concentration is attained. To produce further test concentrations, the preparation is diluted with emulsifier-containing water.
Discs of bean leaves (Phaseolus vulgaris) infested with all stages of the greenhouse red spider mite (Tetranychus urticae) are sprayed with an active compound preparation of the desired concentration.
After 6 days, the efficacy in % is determined. 100% means that all the spider mites have been killed; 0% means that none of the spider mites have been killed.

[5] = system: Tetranychus urticae; assay: Tetranychus urticae spray test, OP-resistant (bean plants); type: in vivo; settings: application rate 20 ppm, after 7 days
Experimental: 5. Tetranychus urticae-Spray Test, OP-Resistant Solvent: 7 parts by weight of dimethylformamide Emulsifier: alkylaryl polyglycol ether
as §1, with “water. If the addition of ammonium salts or/and penetrants is required, these are each added in a concentration of 1000 ppm to the preparation solution.” for “water.”
Bean plants (Phaseolus vulgaris) heavily infested by all stages of the greenhouse red spider mite (Tetranychus urticae) are sprayed with an active compound preparation of the desired concentration.
After 7 days, the efficacy in % is determined. 100% means that all the spider mites have been killed; 0% means that none of the spider mites have been killed.

[6] = system: Tetranychus urticae; assay: Tetranychus urticae drench test, OP-resistant; type: in vivo; settings: application rate 4 ppm, after 14 days, bean plants in soil
Experimental: 6. Tetranychus urticae—Drench Test, OP-Resistant Solvent: 7 parts by weight of dimethylformamide Emulsifier: 2 parts by weight of alkylaryl polyglycol ether
To produce a suitable preparation of active compound, 1 part by weight of active compound is mixed with the stated amounts of solvent and emulsifier, and the concentrate is diluted with water to the desired concentration, where the volume of soil to be drenched has to be taken into account. Here, it has to be made sure that a concentration of 40 ppm of emulsifier in the soil is not exceeded. To produce further test concentrations, the mixture is diluted with water.
Bean plants (Phaseolus vulgaris) in pots filled with soil, which plants are heavily infested by all stages of the greenhouse red spider mite (Tetranychus urticae), are watered with an active compound preparation of the desired concentration.
After 14 days, the efficacy in % is assessed. 100% means that all spider mites have been killed; 0% means that none of the spider mites have been killed.

[7] = system: Meloidogyne incognita; assay: Meloidogyne incognita test (soil drench, lettuce); type: in vivo; settings: application rate 8 ppm, after 21 days, lettuce in soil (loamy sand)
Experimental: 7. Meloidogyne incognita—Test Solvent: 7 parts by weight of dimethylformamide Emulsifier: 2.5 parts by weight of alkylaryl polyglycol ether To produce a suitable preparation of active compound, 1 part by weight of active compound is mixed with the stated amounts of solvent and emulsifier, and the concentrate is diluted with water to the desired concentration, where the volume of soil to be drenched has to be taken into account. Here, it has to be made sure that a concentration of 20 ppm of emulsifier in the soil is not exceeded. To produce further test concentrations, the mixture is diluted with water. Pots filled with soil (loamy sand) are watered with the active compound solution. An egg/larvae suspension of the southern root-knot nematode (Meloidogyne incognita) is added, lettuce seeds are scattered on the surface of the soil and covered with quartz sand. The lettuce seeds germinate and the plants develop. The galls develop on the roots. After 21 days, the nematicidal efficacy in % is determined by the formation of galls. 100% means that no galls were found; 0% means that the number of galls on the treated plants corresponds to that of the untreated control.

[8] = system: Panonychus ulmi; assay: Panonychus ulmi spray test; type: in vivo; settings: application rate 20 ppm, after 14 days, plum trees
Experimental: 8. Panonychus ulmi—Spray Test Solvent: 7 parts by weight of dimethylformamide Emulsifier: alkylaryl polyglycol ether To produce a suitable preparation of active compound, 1 part by weight of active compound is dissolved in the parts by weight of solvent stated and filled with water containing an emulsifier concentration of 1000 ppm until the desired concentration is reached. To prepare further test concentrations, the mixture is diluted with emulsifier-containing water. If the addition of ammonium salts and/or penetrants (rapeseed oil methyl ester) is required, these are, after dilution of the finished preparation solution, added using a pipette, at a concentration of in each case 1000 ppm. Plum trees (Prunus domestica), infested by a mixed population of the European red mite (Panonychus ulmi) are treated by spraying with the active compound preparation of the desired concentration. After 14 days, the kill in % is determined. 100% means that all spider mites have been killed; 0% means that none of the spider mites have been killed.

In the case of `Cc1cc(F)c(-c2cc(=O)n(C)c(=O)n2C)cc1[S+]([O-])CC(F)(F)F` (stereo not drawn) [Example I-1, 6-{2-Fluoro-4-methyl-5-[(2,2,2-trifluoroethyl)sulphinyl]phenyl}-1,3-dimethylpyrimidine-2,4(1H,3H)-dione], the chromatographic logP ([1]; acidic range, pH 2.7, 0.1% aqueous formic acid/acetonitrile, read-out: logP (HCOOH) = logP[a]) is reported as 1.77, the chromatographic logP ([1]; neutral range, pH 7.8, 0.001 molar aqueous ammonium hydrogencarbonate/acetonitrile, read-out: logP (neutral) = logP[b]) is reported as 1.75 and the “efficacy (no fertile eggs laid)” value [2] is reported as 100%. The “nematicidal efficacy (formation of galls)” value [3] was 100%, the “efficacy (spider mites killed)” value [4] was 100% and the “efficacy (spider mites killed)” value [5] was 100%. The “efficacy (spider mites killed)” value [6] was 100%, the “nematicidal efficacy (formation of galls)” value [7] was 90% and the “efficacy (kill of spider mites)” value [8] was 100%.
